The numbers were not newly measured in patent publication US9340513B2, “Propenoate derivatives of betulin” (GlaxoSmithKline LLC, priority 2011, dated 2016), which cites them from elsewhere.

The subject of this series is HIV. The conditions noted are these: cited from earlier work.

For the molecule `C=C(C)[C@@H]1CC[C@]2(C(=O)O)CC[C@]3(C)[C@H](CC[C@@H]4[C@@]5(C)CC[C@H](OC(=O)CC(C)(C)C(=O)O)C(C)(C)[C@@H]5CC[C@]43C)[C@@H]12` [Bevirimat], the “mean reduction of HIV viral load” value (patients with trough levels >=20 μg/mL and without key baseline Gag polymorphisms at Q369, V370 or T371) is recorded as 1.3 log10/mL. The “viral load reduction versus patients without Gag polymorphisms” value (users with Gag polymorphisms at Q369, V370 or T371) was “significantly lower load reductions”.
